pIC50: −log10 of the molar value.
Legend:
[1] = molecular target: T1, Serine/threonine-protein kinase Nek3 (Homo sapiens) (UniProt P51956); assay: Selectivity interaction (KinomeScan (DiscoverX)) EUB0001049a NEK3; settings: at 1 µM
T1 sequence (whole entry): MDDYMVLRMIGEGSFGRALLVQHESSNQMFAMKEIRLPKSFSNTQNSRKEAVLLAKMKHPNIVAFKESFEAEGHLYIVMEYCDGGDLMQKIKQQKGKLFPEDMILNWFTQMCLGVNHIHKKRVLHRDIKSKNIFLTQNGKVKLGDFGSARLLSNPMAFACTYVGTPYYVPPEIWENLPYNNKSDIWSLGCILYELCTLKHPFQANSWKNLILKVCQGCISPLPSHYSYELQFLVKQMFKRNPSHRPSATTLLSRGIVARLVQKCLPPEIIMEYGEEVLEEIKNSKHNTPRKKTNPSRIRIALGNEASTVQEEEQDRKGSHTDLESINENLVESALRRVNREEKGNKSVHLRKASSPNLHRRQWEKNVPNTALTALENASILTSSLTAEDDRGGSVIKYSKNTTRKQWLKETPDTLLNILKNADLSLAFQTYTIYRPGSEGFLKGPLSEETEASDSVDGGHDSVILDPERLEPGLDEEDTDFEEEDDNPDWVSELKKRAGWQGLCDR

[2] = molecular target: Serine/threonine-protein kinase 32A (Homo sapiens) (UniProt Q8WU08); assay: Selectivity interaction (KinomeScan (DiscoverX)) EUB0000666a STK32A; settings: at 10 µM
[3] = molecular target: Dual specificity mitogen-activated protein kinase kinase 1 (Homo sapiens, UniProt Q02750); assay: Selectivity interaction (KinomeScan (DiscoverX)) EUB0001550a MAP2K1; settings: at 1 µM
[4] = molecular target: Mitogen-activated protein kinase kinase kinase 11 (Homo sapiens) (UniProt Q16584); assay: Selectivity interaction (KinomeScan (DiscoverX)) EUB0000092b MAP3K11; settings: at 10 µM
[5] = molecular target: T2, Mitogen-activated protein kinase kinase kinase kinase 2 (Homo sapiens) (UniProt Q12851); assay: Selectivity interaction (KinomeScan (DiscoverX)) EUB0000045b MAP4K2
T2 sequence (whole entry): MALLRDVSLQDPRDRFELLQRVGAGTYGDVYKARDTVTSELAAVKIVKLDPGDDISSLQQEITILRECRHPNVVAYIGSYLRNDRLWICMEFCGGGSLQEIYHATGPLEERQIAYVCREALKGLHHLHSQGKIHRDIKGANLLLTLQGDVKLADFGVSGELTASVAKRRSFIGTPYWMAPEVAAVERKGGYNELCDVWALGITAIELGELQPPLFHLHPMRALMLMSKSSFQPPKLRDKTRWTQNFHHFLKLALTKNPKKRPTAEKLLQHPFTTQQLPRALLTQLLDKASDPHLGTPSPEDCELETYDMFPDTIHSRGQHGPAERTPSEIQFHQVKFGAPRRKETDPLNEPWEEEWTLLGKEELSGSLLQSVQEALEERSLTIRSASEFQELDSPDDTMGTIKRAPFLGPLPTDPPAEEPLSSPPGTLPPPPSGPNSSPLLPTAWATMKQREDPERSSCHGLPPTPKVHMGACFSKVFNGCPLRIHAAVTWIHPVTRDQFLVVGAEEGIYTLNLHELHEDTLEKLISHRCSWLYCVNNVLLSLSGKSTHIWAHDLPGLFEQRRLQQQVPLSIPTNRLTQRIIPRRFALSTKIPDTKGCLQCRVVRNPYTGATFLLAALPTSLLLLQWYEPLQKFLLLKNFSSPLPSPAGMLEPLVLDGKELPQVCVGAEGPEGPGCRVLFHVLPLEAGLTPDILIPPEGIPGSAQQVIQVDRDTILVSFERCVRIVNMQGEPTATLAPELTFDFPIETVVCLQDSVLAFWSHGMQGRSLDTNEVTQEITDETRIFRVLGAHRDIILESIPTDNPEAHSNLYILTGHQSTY

[6] = molecular target: T3, Interleukin-1 receptor-associated kinase 3 (Homo sapiens) (UniProt Q9Y616); assay: Selectivity interaction (KinomeScan (DiscoverX)) EUB0000618a IRAK3; settings: at 10 µM
T3 sequence (whole entry): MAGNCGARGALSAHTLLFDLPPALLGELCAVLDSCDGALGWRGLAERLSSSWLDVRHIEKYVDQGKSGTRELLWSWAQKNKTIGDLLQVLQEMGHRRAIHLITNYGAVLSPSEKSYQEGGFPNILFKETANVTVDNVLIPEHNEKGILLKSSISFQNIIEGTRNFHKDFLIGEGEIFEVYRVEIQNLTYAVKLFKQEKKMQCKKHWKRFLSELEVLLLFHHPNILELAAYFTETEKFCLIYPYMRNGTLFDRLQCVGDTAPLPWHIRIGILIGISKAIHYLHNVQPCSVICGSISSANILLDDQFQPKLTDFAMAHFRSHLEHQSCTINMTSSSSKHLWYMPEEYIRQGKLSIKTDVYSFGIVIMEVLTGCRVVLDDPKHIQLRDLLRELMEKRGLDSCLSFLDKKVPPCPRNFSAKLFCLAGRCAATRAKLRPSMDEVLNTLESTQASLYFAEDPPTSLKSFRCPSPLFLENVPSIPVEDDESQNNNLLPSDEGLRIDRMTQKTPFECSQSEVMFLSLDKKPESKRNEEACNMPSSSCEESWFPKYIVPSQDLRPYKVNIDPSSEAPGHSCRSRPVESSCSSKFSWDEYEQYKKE

[7] = molecular target: Mast/stem cell growth factor receptor Kit (Homo sapiens, UniProt P10721)
Focal adhesion kinase 1 = Focal adhesion kinase 1 (Homo sapiens, UniProt Q05397); assay: Selectivity interaction (ActivX KiNativ screen (ex vivo kinase selectivity in human PBMCs)) EUB0001619a PTK2; type: cell-based; settings: PBMC, at 1 µM
[8] = molecular target: Serine/threonine-protein kinase Nek7 (Homo sapiens) (UniProt Q8TDX7); assay: Selectivity interaction (KinomeScan (DiscoverX)) EUB0001619a NEK7; settings: at 1 µM
[9] = molecular target: T4, Dual specificity mitogen-activated protein kinase kinase 6 (Homo sapiens) (UniProt P52564); assay: Selectivity interaction (KinomeScan (DiscoverX)) EUB0000607a MAP2K6; settings: at 10 µM
T4 sequence (whole entry): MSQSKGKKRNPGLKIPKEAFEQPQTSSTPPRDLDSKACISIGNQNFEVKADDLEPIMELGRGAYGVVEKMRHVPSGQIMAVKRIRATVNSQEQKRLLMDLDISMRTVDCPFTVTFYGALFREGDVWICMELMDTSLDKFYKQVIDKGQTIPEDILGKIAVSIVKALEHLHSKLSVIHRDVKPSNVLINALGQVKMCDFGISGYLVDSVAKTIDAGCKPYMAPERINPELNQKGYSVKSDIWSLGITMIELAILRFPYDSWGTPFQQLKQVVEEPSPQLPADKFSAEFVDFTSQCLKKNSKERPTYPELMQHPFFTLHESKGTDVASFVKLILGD

[10] = molecular target: Mitogen-activated protein kinase 14 (Homo sapiens, UniProt Q16539); assay: Selectivity interaction (SelectScreen profiling (Invitrogen)) EUB0000607a MAPK14; settings: at 2 µM
[11] = molecular target: Tyrosine-protein kinase Fer (Homo sapiens) (UniProt P16591); assay: Selectivity interaction (ProQinase) EUB0000171b FER
Tyrosine-protein kinase Fer (Homo sapiens), sequence (P16591 whole entry, looked up): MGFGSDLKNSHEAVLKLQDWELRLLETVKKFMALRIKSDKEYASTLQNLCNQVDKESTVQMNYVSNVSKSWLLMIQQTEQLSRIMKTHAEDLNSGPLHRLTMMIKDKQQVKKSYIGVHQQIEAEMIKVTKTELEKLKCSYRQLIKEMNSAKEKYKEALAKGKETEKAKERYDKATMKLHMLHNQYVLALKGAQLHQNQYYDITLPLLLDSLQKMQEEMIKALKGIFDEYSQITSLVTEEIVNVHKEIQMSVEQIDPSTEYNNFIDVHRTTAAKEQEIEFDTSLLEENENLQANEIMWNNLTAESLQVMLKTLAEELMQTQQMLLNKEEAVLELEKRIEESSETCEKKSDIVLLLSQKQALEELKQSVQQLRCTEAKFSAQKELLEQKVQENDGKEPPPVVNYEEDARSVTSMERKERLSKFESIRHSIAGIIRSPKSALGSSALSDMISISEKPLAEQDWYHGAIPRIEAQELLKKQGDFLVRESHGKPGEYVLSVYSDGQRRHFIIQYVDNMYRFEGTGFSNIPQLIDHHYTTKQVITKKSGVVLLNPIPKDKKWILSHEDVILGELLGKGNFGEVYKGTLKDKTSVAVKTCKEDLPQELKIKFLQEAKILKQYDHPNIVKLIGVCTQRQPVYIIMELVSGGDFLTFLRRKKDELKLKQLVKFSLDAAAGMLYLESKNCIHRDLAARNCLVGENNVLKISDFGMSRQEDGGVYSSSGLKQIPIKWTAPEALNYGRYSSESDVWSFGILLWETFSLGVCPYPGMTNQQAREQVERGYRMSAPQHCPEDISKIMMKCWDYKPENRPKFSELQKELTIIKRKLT

Focal adhesion kinase 1, sequence (Q05397 2-1052 limits assumed): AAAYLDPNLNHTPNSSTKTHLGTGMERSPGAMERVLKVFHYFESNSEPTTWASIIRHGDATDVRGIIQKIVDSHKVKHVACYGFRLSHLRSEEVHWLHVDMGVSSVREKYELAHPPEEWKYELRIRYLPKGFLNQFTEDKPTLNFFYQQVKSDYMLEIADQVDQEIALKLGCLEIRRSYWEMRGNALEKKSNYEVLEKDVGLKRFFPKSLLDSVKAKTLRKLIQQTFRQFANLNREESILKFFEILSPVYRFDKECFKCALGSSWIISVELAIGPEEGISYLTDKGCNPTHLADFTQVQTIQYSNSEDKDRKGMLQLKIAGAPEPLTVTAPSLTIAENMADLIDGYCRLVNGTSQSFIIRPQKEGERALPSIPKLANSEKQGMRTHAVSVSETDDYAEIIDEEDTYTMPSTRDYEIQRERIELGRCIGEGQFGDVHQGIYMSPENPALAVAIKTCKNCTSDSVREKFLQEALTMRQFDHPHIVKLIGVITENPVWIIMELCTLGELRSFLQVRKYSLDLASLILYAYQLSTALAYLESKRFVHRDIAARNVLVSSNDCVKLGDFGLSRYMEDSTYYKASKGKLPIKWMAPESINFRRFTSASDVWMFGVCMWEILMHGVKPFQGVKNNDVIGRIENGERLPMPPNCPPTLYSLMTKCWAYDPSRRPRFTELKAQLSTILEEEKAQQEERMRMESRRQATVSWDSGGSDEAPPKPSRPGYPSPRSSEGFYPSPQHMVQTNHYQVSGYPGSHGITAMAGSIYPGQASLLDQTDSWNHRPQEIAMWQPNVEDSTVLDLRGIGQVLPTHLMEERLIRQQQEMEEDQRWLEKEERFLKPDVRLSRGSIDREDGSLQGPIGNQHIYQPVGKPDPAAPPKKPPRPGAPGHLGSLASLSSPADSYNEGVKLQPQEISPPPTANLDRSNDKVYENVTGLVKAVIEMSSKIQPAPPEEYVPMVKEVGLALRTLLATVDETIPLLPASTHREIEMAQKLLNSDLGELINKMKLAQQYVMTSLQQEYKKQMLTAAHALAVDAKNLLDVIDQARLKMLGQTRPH
Serine/threonine-protein kinase 32A (Homo sapiens), sequence (Q8WU08 whole entry): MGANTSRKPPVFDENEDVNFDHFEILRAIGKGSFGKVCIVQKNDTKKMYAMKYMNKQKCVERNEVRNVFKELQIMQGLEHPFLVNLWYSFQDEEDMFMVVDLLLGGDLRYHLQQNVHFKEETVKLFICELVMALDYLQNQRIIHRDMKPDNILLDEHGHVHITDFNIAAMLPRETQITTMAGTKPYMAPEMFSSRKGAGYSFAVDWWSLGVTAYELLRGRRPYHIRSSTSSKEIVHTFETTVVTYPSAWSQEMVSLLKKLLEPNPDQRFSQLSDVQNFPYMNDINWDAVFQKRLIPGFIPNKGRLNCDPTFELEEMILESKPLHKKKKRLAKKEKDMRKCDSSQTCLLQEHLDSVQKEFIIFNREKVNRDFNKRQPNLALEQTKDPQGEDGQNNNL
Serine/threonine-protein kinase Nek7 (Homo sapiens), sequence (Q8TDX7 whole entry, looked up): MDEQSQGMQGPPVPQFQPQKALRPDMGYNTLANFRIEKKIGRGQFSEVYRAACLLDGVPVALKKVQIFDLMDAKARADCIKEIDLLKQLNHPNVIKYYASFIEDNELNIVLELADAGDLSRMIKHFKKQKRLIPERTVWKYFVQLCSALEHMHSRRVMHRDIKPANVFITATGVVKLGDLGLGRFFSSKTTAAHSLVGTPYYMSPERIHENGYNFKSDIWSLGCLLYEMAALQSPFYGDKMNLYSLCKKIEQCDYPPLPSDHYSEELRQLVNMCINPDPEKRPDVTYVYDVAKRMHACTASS
Mitogen-activated protein kinase kinase kinase 11 (Homo sapiens), sequence (Q16584 whole entry, looked up): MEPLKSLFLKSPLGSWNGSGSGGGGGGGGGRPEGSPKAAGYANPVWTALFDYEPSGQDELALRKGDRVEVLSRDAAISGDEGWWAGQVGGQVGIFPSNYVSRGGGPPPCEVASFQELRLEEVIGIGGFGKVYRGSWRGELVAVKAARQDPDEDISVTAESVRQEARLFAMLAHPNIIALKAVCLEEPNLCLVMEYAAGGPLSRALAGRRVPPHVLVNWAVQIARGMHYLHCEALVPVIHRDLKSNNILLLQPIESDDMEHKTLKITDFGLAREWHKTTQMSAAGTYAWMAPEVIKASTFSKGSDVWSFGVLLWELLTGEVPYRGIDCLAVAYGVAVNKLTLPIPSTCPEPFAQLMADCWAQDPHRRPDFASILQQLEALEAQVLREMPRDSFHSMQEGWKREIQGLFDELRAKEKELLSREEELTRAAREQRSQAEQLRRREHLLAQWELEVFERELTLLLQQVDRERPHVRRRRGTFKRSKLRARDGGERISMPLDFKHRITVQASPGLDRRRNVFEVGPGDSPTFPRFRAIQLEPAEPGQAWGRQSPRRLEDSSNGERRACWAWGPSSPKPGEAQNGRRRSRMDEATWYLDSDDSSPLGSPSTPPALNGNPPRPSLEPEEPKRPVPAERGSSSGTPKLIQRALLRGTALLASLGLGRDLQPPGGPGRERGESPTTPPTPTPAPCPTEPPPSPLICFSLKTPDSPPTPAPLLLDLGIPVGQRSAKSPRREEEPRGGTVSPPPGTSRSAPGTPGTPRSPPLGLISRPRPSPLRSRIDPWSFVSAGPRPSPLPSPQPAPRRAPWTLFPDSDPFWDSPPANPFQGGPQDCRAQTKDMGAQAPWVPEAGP
Mitogen-activated protein kinase 14, sequence (Q16539 whole entry): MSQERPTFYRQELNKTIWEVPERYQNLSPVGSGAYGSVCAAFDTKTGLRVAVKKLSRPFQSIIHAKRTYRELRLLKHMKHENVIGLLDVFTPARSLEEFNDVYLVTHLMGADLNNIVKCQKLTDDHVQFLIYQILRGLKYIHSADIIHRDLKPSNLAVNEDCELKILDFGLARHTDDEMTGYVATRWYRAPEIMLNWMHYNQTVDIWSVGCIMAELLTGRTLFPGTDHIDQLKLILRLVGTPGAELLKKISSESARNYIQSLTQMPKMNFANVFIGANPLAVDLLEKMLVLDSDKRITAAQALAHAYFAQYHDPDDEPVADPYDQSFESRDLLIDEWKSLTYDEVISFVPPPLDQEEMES
Mast/stem cell growth factor receptor Kit, sequence (P10721 whole entry): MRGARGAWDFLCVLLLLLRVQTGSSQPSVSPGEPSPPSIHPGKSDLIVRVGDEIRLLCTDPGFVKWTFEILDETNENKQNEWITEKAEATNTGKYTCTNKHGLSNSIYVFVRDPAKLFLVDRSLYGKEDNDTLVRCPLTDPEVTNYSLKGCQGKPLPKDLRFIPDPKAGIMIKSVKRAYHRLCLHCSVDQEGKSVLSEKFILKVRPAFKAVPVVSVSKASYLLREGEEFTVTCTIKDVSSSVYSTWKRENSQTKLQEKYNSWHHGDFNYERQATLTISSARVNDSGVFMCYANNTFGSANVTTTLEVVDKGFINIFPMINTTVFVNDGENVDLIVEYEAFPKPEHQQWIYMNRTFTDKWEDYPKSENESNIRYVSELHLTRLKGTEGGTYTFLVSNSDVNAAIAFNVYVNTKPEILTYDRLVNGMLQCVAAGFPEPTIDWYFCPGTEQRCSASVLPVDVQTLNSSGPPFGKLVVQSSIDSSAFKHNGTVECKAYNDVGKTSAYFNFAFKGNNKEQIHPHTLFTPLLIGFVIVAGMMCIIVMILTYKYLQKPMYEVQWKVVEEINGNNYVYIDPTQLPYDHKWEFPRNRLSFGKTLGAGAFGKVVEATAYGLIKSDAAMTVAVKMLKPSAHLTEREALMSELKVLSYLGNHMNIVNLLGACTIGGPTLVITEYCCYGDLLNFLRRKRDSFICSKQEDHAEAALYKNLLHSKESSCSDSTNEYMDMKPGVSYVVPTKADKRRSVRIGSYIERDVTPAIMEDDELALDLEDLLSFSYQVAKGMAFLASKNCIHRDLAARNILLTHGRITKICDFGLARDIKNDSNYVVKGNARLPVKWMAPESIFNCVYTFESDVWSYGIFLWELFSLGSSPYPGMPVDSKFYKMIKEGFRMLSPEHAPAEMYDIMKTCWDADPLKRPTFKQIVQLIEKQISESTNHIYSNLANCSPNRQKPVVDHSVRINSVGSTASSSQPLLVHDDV

`COc1cc(Nc2nc(C)cc(-c3cnn4nc(OC)ccc34)n2)cc(C(F)(F)F)c1` was tested, and the % of control [1] was 92%.
Work on `O=C(NOC[C@H](O)CO)c1ccc(F)c(F)c1Nc1ccc(I)cc1F` yielded a % of control [2] of 80%.
Molecule `CN(C)CC#Cc1ccc2[nH]c3c(c2c1)-c1nc(N)ncc1CCC3` has a % of control [3] of 4.5%.
For `CCC(=O)N1CCN(c2ccc(-n3c(=O)ccc4cnc5ccc(-c6cnc7ccccc7c6)cc5c43)cc2C(F)(F)F)CC1`, the % of control [4] was 69%.
Molecule `C=CC(=O)Nc1cc(-n2c(=O)ccc3cnc4ccc(-c5ccc(NS(C)(=O)=O)cc5)cc4c32)ccc1C` has a % of control ([5]; at 1 µM) of 100% and a % of control ([5]; at 10 µM) of 89%.
Work on `O[C@H]1CC[C@H](Nc2ncc3nc(Nc4c(F)cc(F)cc4F)n([C@H]4CCOC4)c3n2)CC1` yielded a % of control [6] of 100%.
Work on `CCc1cccc(CC)c1NC(=O)c1nn(C)c2c1CCc1cnc(Nc3ccc(C(=O)NC4CCN(C)CC4)cc3OC(F)(F)F)nc1-2` yielded a pIC50 [7] of less than 5.00.
For `N#Cc1cccc(-c2c[nH]c3ncnc(N4CCOCC4)c23)c1`, the % of inhibition (Focal adhesion kinase 1) was 11% and the % of control [8] was 100%.
Molecule `CNC(=O)Nc1ccc(-c2nc(N3CC4CCC(C3)O4)c3cnn(C4CCC5(CC4)OCCO5)c3n2)cc1` has a % of control [9] of 95% and a % of inhibition [10] of 11%.
`C=CC(=O)Nc1cccc(C(=O)Nc2ccc(Nc3cc(-c4[nH]c(SC)nc4C)ccn3)cc2)c1` showed a % of control ([11]; at 1 µM) of 104% and a % of control ([11]; at 5 µM) of 93%.
